Source: patent US6667327B2, “Pyridine amido derivatives” (Hoffmann-La Roche Inc., priority 2003, dated 2003)

How the values were obtained:
human MAO-B = biological target: T1, human MAO-B (Homo sapiens, UniProt P27338); test: [3H]Ro 19-6327 binding assay for MAO-B on membranes of transfected EBNA cells; conditions: 20 nM [3H]Ro 19-6327, 1 hour at 25° C., membranes of EBNA cells transfected with human MAO-B
T1 construct: expressed in transfected cells; host or cells: EBNA cells (transient transfection); cell membranes
T1 sequence (P27338 1-520): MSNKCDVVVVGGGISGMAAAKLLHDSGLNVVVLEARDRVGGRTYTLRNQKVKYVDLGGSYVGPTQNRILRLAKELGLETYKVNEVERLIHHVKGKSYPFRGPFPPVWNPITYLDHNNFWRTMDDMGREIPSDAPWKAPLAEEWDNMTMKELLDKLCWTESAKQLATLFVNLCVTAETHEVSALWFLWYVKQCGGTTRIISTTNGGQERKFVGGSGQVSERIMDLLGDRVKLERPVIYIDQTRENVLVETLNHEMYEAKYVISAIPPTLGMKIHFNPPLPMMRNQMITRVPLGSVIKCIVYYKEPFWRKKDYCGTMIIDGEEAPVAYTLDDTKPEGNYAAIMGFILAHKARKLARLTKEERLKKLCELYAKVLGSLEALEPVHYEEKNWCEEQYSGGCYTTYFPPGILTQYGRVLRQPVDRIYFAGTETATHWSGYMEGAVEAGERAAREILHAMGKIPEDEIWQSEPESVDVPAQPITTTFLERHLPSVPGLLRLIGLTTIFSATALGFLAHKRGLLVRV
Method: (§1) The cDNA's encoding human MAO-A and MAO-B were transiently transfected into EBNA cells using the procedure described by E.-J. Schlaeger and K. Christensen (Transient Gene Expression in Mammalian Cells Grown in Serum-free Suspension Culture; Cytotechnology, 15: 1-13, 1998). After transfection, cells were homogeneised by means of a Polytron homogeneiser in 20 mM Tris HCI buffer, pH 8.0, containing 0.5 mM EGTA and 0.5 mM phenylmethanesulfonyl fluoride. Cell membranes were obtained by centrifugation at 45,000×g and, after two rinsing step with 20 mM Tris HCI buffer, pH 8.0, containing 0.5 mM EGTA, membranes were eventually re-suspended in the above buffer and aliquots stored at −80° C. until use.
(§2) MAO-A and MAO-B activities were assayed by [^3H]Ro 41-1049 [tritiated N-(2-aminoethyl)-5-(3-fluorophenyl)-4-thiazole-carboxamide] and [^3H] Ro 19-6327 [tritiated N-(2-aminoethyl)-5-chloro-2-pyridinecarboxamide, [^3H] lazabemide] binding, respectively, following the methods described by Cesura et al. (Characterization of the binding of [^3H]Ro 41-1049 to the active site of monoamine oxidase-A, Molec. Pharmacol. 1990, 37, 358-366; [^3H]Ro 19-6327: a reversible ligand and affinity-labeling probe for monoamine oxidase-B, Eur. J. Pharmacol., 1989, 162, 457-465). Briefly, membrane aliquots were incubated in the presence of 20 nM [^3H]Ro 41-1049 (MAO-A assay) and [^3H]Ro 19-6327 (MAO-B assay) for 1 hour at 37° C. and 25° C., respectively, with or without various concentrations of the compounds, in a final volume of 0.2 ml. The incubation buffer consisted of 50 mM Tris, 130 mM NaCl, 5 mM KCI, 1 mM MgCl2, 0.5 mM EGTA, buffered to pH 7.4 with HCl. The assay was terminated by filtering the samples through GF/C filters (Unifilter-96, Canberra Packard). The radioactivity retained on the filters was eventually counted for radioactivity by means of a Packard Top-Count scintillation counter, after addition of Microscint 40 scintillation fluid (Canberra Packard). Non-specific binding was determined in the presence of 10 μM clorgyline for MAO-A or 10 μM L-deprenyl for MAO-B.
(§3) IC50 values, that is, the concentration of a test compound of formula I required to inhibit the MAO-B enzyme activity by 50%, were determined from inhibition curves obtained using nine inhibitor concentrations in duplicate, by fitting data to a four parameter logistic equation using a computer program.

human MAO-A = biological target: T2, human MAO-A (Homo sapiens, UniProt P21397); test: [3H]Ro 41-1049 binding assay for MAO-A on membranes of transfected EBNA cells; conditions: 20 nM [3H]Ro 41-1049, 1 hour at 37° C., membranes of EBNA cells transfected with human MAO-A
T2 construct: expressed in transfected cells; host or cells: EBNA cells (transient transfection); cell membranes
T2 sequence (P21397 1-527): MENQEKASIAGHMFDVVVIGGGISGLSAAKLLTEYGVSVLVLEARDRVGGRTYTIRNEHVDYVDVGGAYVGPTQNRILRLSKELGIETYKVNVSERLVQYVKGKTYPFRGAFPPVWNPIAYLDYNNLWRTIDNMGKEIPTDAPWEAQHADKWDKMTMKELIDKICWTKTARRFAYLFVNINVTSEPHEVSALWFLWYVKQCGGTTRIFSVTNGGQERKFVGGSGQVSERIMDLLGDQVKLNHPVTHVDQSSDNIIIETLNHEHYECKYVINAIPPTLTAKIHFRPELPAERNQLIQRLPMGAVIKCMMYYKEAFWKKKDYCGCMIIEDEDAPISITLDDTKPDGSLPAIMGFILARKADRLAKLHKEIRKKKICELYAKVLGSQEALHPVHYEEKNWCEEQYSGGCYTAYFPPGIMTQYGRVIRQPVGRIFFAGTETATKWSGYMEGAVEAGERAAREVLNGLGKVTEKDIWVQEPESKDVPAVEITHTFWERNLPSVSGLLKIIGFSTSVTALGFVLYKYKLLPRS
Method: as §1, §2, §3

| SMILES | IC50 (human MAO-B) [nM] | IC50 (human MAO-A) [nM] |
| --- | --- | --- |
| NC(=O)CNC(=O)c1ccc(OCc2ccccc2)nc1 [Example 1, 6-Benzyloxy-N-carbamoylmethyl-nicotinamide] | 33 | > 10000 |
| NC(=O)CNC(=O)c1ccc(OCc2cccc(F)c2)nc1 [Example 2, N-Carbamoylmethyl-6-(3-fluoro-benzyloxy)-nicotinamide] | 30 | 4150 |
| NC(=O)CNC(=O)c1ccc(OCc2cccc(F)c2)cn1 [Example 7, 5-(3-Fluoro-benzyloxy)-pyridine-2-carboxylic Acid Carbamoylmethyl-amide] | 28 | 9160 |
| NC(=O)CNC(=O)c1ccc(OCc2ccc(F)cc2)cn1 [Example 8, 5-(4-Fluoro-benzyloxy)-pyridine-2-carboxylic Acid Carbamoylmethyl-amide] | 30 | > 10000 |
| NC(=O)CNC(=O)c1ccc(OCc2ccc(F)c(F)c2)cn1 [Example 9, 5-(3,4-Difluoro-benzyloxy)-pyridine-2-carboxylic Acid Carbamoylmethyl-amide] | 43 | > 10000 |
| C[C@H](NC(=O)c1ccc(OCc2ccc(F)cc2)cn1)C(N)=O [Example 11, (S)-5-(4-Fluoro-benzyloxy)-pyridine-2-carboxylic Acid (1-carbamoyl-ethyl)-amide] | 70 | > 10000 |
